PubChem BioAssay (NCI)
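Five compound concentrations were applied to cells in 96-well plates for 48 hours; endpoints were derived by simple linear interpolation of the resulting dose-response curve. The concentration for 50% growth inhibition is given as GI50. Definition used: TGI = concentration required for complete inhibition of growth.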

What was measured:
Test in all cases: NCI tumour cell line growth inhibition, 48 h
[1] = tested on: SF-539 CNS
[2] = tested on: MDA-MB-231 breast
[3] = tested on: HOP-92 NSCLC
[4] = tested on: RPMI-8226 leukemia
[5] = tested on: IGROV1 ovarian
[6] = tested on: MALME-3M melanoma
[7] = tested on: SF-295 CNS
[8] = tested on: OVCAR-4 ovarian
[9] = tested on: K-562 leukemia
[10] = tested on: SN12C renal
[11] = tested on: OVCAR-8 ovarian
[12] = tested on: UO-31 renal
[13] = tested on: A549 NSCLC
[14] = tested on: M14 melanoma
[15] = tested on: RXF 393 renal
[16] = tested on: SNB-19 CNS
[17] = tested on: MCF7 breast
[18] = tested on: SR leukemia
[19] = tested on: NCI-H460 lung
[20] = tested on: TK-10 renal
[21] = tested on: HCT-116 colon
[22] = tested on: SNB-75 CNS
[23] = tested on: HCT-15 colon
[24] = tested on: ACHN renal
[25] = tested on: UACC-62 melanoma
[26] = tested on: BT-549 breast
[27] = tested on: UACC-257 melanoma
[28] = tested on: SK-OV-3 ovarian
[29] = tested on: EKVX NSCLC
[30] = tested on: KM12 colon
[31] = tested on: LOX IMVI melanoma
[32] = tested on: HCC-2998 colon
[33] = tested on: DU-145 prostate
[34] = tested on: SK-MEL-2 melanoma
[35] = tested on: HT29 colon
[36] = tested on: NCI-H23 lung
[37] = tested on: OVCAR-5 ovarian
[38] = tested on: MOLT-4 leukemia
[39] = tested on: SW-620 colon
[40] = tested on: HS 578T breast
[41] = tested on: 786-0 renal
[42] = tested on: SK-MEL-5 melanoma
[43] = tested on: CCRF-CEM leukemia
[44] = tested on: A498 renal
[45] = tested on: PC-3 prostate
[46] = tested on: HL-60(TB) leukemia
[47] = tested on: NCI-H522 lung
[48] = tested on: U251 CNS
[49] = tested on: COLO 205 colon
[50] = tested on: HOP-62 NSCLC
[51] = tested on: SF-268 CNS
[52] = tested on: MDA-MB-435
[53] = tested on: SK-MEL-28 melanoma
[54] = tested on: CAKI-1 renal
[55] = tested on: NCI-H226 lung
[56] = tested on: NCI/ADR-RES ovarian
[57] = tested on: T-47D breast

COc1cc2c(cc1OC)C(Sc1ccc(F)cc1)c1c(nc(N)c(C#N)c1N)O2 (centres undefined)
GI50 [1]: 1190 nM | TGI [1]: 2490 nM | GI50 [2]: 1360 nM | TGI [2]: 2700 nM | GI50 [3]: 1190 nM | TGI [3]: 2640 nM | GI50 [4]: 754 nM | GI50 [5]: 534 nM | TGI [5]: 1950 nM | GI50 [6]: 1200 nM | TGI [6]: 2540 nM | GI50 [7]: 1620 nM | TGI [7]: 3000 nM | GI50 [8]: 1540 nM | TGI [8]: 2930 nM | GI50 [9]: 426 nM | TGI [9]: > 100000 nM | GI50 [10]: 1130 nM | TGI [10]: 2360 nM | GI50 [11]: 1260 nM | TGI [11]: 2540 nM | GI50 [12]: 511 nM | TGI [12]: 1930 nM | GI50 [13]: 1530 nM | TGI [13]: 3000 nM | GI50 [14]: 1160 nM | TGI [14]: 2490 nM | GI50 [15]: 751 nM | TGI [15]: 2030 nM | GI50 [16]: 1250 nM | TGI [16]: 2540 nM | GI50 [17]: 477 nM | TGI [17]: 2040 nM | GI50 [18]: 281 nM | TGI [18]: > 100000 nM | GI50 [19]: 1270 nM | TGI [19]: 2960 nM | GI50 [20]: 1470 nM | TGI [20]: 2800 nM | GI50 [21]: 780 nM | TGI [21]: 2140 nM | GI50 [22]: 1330 nM | TGI [22]: 2700 nM | GI50 [23]: 399 nM | TGI [23]: 1660 nM | GI50 [24]: 1610 nM | TGI [24]: 2980 nM | GI50 [25]: 1200 nM | TGI [25]: 2500 nM | GI50 [26]: 760 nM | TGI [26]: 2170 nM | GI50 [27]: 1340 nM | TGI [27]: 2670 nM | GI50 [28]: 1740 nM | TGI [28]: 3170 nM | GI50 [29]: 1460 nM | TGI [29]: 2840 nM | GI50 [30]: 1480 nM | TGI [30]: 2900 nM | GI50 [31]: 325 nM | TGI [31]: 1090 nM | GI50 [32]: 1510 nM | TGI [32]: 2970 nM | GI50 [33]: 1580 nM | TGI [33]: 2920 nM | GI50 [34]: 859 nM | TGI [34]: 2140 nM | GI50 [35]: 1600 nM | TGI [35]: 3210 nM | GI50 [36]: 1270 nM | TGI [36]: 2850 nM | GI50 [37]: 1650 nM | TGI [37]: 3110 nM | GI50 [38]: 382 nM | TGI [38]: > 100000 nM | GI50 [39]: 709 nM | TGI [39]: 2040 nM | GI50 [40]: 1680 nM | TGI [40]: 4920 nM | GI50 [41]: 1090 nM | TGI [41]: 2320 nM | GI50 [42]: 1570 nM | TGI [42]: 2950 nM | GI50 [43]: 164 nM | TGI [43]: > 100000 nM | GI50 [44]: 1290 nM | TGI [44]: 2570 nM | GI50 [45]: 1050 nM | TGI [45]: 2470 nM | GI50 [46]: 319 nM | TGI [46]: 1280 nM | GI50 [47]: 1250 nM | TGI [47]: 2530 nM | GI50 [48]: 738 nM | TGI [48]: 2080 nM | GI50 [49]: 1100 nM | TGI [49]: 2470 nM | GI50 [50]: 1710 nM | TGI [50]: 3190 nM | GI50 [51]: 1390 nM | TGI [51]: 2900 nM | GI50 [52]: 1220 nM | TGI [52]: 2540 nM | GI50 [53]: 982 nM | TGI [53]: 2340 nM | GI50 [54]: 1040 nM | TGI [54]: 2220 nM

CCn1c2ccccc2c2cc(-n3nncc3-c3ccccc3)ccc21
GI50 [1]: 123 nM | TGI [1]: 754 nM | GI50 [2]: 540 nM | TGI [2]: > 100000 nM | TGI [3]: > 77600 nM | GI50 [4]: 289 nM | TGI [4]: > 71200 nM | GI50 [5]: 164 nM | TGI [5]: > 100000 nM | GI50 [6]: 2430 nM | TGI [6]: > 100000 nM | GI50 [7]: 45.9 nM | TGI [7]: > 100000 nM | GI50 [8]: 29700 nM | TGI [8]: > 100000 nM | GI50 [55]: 519 nM | TGI [55]: > 100000 nM | GI50 [9]: 40.7 nM | TGI [9]: > 100000 nM | GI50 [10]: 800 nM | TGI [10]: > 100000 nM | GI50 [11]: 300 nM | TGI [11]: > 100000 nM | GI50 [12]: 649 nM | TGI [12]: > 100000 nM | GI50 [13]: 208 nM | TGI [13]: > 100000 nM | GI50 [14]: 82.9 nM | TGI [14]: > 100000 nM | GI50 [15]: 130 nM | TGI [15]: > 100000 nM | GI50 [16]: 285 nM | TGI [16]: > 100000 nM | GI50 [17]: 269 nM | TGI [17]: > 100000 nM | GI50 [18]: 37.5 nM | TGI [18]: > 100000 nM | GI50 [19]: 81 nM | TGI [19]: > 62600 nM | GI50 [20]: > 73800 nM | TGI [20]: > 100000 nM | GI50 [21]: 72.2 nM | GI50 [22]: 26.6 nM | TGI [22]: 262 nM | GI50 [23]: 67 nM | TGI [23]: > 100000 nM | GI50 [24]: 301 nM | TGI [24]: > 100000 nM | GI50 [25]: 61.8 nM | TGI [25]: > 100000 nM | GI50 [26]: 147 nM | TGI [26]: 2030 nM | GI50 [27]: 22200 nM | TGI [27]: > 100000 nM | GI50 [28]: 383 nM | TGI [28]: > 100000 nM | GI50 [29]: 532 nM | TGI [29]: > 100000 nM | GI50 [30]: 49 nM | GI50 [31]: 129 nM | TGI [31]: > 100000 nM | GI50 [32]: 277 nM | TGI [32]: > 52400 nM | GI50 [33]: 375 nM | GI50 [34]: 104 nM | TGI [34]: > 31200 nM | GI50 [35]: 117 nM | TGI [35]: 927 nM | GI50 [36]: 375 nM | TGI [36]: > 100000 nM | GI50 [37]: 410 nM | TGI [37]: > 100000 nM | GI50 [38]: 350 nM | TGI [38]: > 100000 nM | GI50 [39]: 73.2 nM | TGI [39]: > 100000 nM | GI50 [40]: 61.5 nM | TGI [40]: > 100000 nM | GI50 [41]: 340 nM | TGI [41]: > 100000 nM | GI50 [56]: 53.4 nM | TGI [56]: > 100000 nM | GI50 [42]: 435 nM | TGI [42]: 4020 nM | GI50 [43]: 203 nM | TGI [43]: > 100000 nM | GI50 [44]: 95.4 nM | TGI [44]: 799 nM | GI50 [45]: 139 nM | TGI [45]: > 100000 nM | GI50 [46]: 69.7 nM | TGI [46]: > 20300 nM | TGI [57]: > 100000 nM | GI50 [47]: 30.2 nM | TGI [47]: 145 nM | GI50 [48]: 116 nM | TGI [48]: > 100000 nM | GI50 [49]: 134 nM | TGI [49]: 438 nM | GI50 [50]: 141 nM | TGI [50]: > 100000 nM | GI50 [51]: 843 nM | TGI [51]: > 100000 nM | GI50 [53]: > 64400 nM | TGI [53]: > 100000 nM | GI50 [54]: 77.5 nM | TGI [54]: > 100000 nM
